Laboratory results: PubChem BioAssay (NCI)
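Results reflect a 48-hour exposure of cells in 96-well plates to compound at five concentrations. Definition used: TGI = concentration required for complete inhibition of growth.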

What was measured:
Assay in all cases: NCI anticancer screen, dose series, 48 h
[1] = test system: 786-0 renal
[2] = test system: A549 NSCLC
[3] = test system: HS 578T breast
[4] = test system: HT29 colon
[5] = test system: MDA-MB-231 breast
[6] = test system: MDA-MB-435
[7] = test system: NCI-H460 lung
[8] = test system: NCI/ADR-RES ovarian
[9] = test system: PC-3 prostate
[10] = test system: RXF 393 renal
[11] = test system: SF-295 CNS
[12] = test system: SF-539 CNS
[13] = test system: SK-MEL-28 melanoma
[14] = test system: SN12C renal
[15] = test system: SR leukemia
[16] = test system: T-47D breast
[17] = test system: UACC-257 melanoma
[18] = test system: ACHN renal

Row | SMILES | TGI [1] [µM] | TGI [2] [µM] | TGI [3] [µM] | TGI [4] [µM] | TGI [5] [µM] | TGI [6] [µM] | TGI [7] [µM] | TGI [8] [µM] | TGI [9] [µM] | TGI [10] [µM] | TGI [11] [µM] | TGI [12] [µM] | TGI [13] [µM] | TGI [14] [µM] | TGI [15] [µM] | TGI [16] [µM] | TGI [17] [µM] | TGI [18] [µM]
1 | CC(C)CCCC(C)[C@H]1CC[C@H]2n3c(nnc3-c3ccccc3)CCC[C@]12C (stereo not given in full) | 34.8 | 28 | 43.3 | 60.5 | 37.9 | 25.7 | 24.1 | 24 | 44.9 | 27 | 21.9 | 25.1 | 37.1 | 27.5 | 26.3 | 37.4 | 26.9 | 
2 | O=C(O)c1cccc(Nc2c(C(=O)O)cccc2[N+](=O)[O-])c1 | > 100 | > 100 | > 100 | > 100 | > 100 |  | > 100 | > 100 | > 100 |  | > 100 | > 100 |  | > 100 | > 100 | > 100 | > 100 | > 100
3 | Cc1ccc(S(=O)(=O)NC(=O)NCc2ccc(S(N)(=O)=O)cc2)cc1 | > 100 | > 100 | > 100 | > 100 | > 100 | > 100 | > 100 | > 100 | > 100 | > 100 | > 100 | > 100 | > 100 |  | > 100 | > 100 |  | > 100
4 | CSC1=N/C(=C\c2ccc(C)cc2)C(=O)N1 | > 100 | > 100 | > 100 | > 100 | > 100 | > 100 |  | > 100 | > 100 | 96.2 | > 100 | > 100 | > 100 | > 100 | > 100 | > 100 | > 100 | > 100
5 | CC1=NN(c2cccc(S(=O)(=O)O)c2)C2(C1)C(Cl)C(=O)N2c1nc2ccccc2s1 (stereo not given) | 11.7 | 26.4 | > 80.7 | 22.2 | 23.1 | 21.2 | 26.3 | 26.8 | 22.9 | 22.8 | 28 |  | 36.1 | 19.9 | 17.4 | 40.4 | 28.3 | 18.4
6 | Cc1c2c(cc3c1C(=O)C(=O)C([C@@H](C)CO)=C3O)C(C)(C)CCC2 | > 100 | > 100 | > 100 | 30.6 | > 100 | > 100 |  | > 100 | 48.2 | 92.3 | > 100 |  | > 100 | > 100 | 56.7 | > 100 | > 100 | 
7 | Cc1cccc2nc(-c3ccccc3)cc(=O)n12 | > 100 | > 100 | > 100 | > 100 | > 100 |  | > 100 | > 100 | > 100 | > 100 | > 100 | > 100 | > 100 | > 100 | > 100 | > 100 | > 100 | > 100
8 | COc1cccc(Nc2nc(C)c([N+](=O)[O-])c(Nc3cccc(OC)c3)n2)c1 | > 100 | > 100 | > 100 | > 100 | > 100 |  | 19.8 | 14.4 | > 100 | 35.2 | 47.9 | > 100 | > 100 | > 100 | > 100 | 6.9 | 46.7 | > 100
9 | COC(=O)c1ccccc1/C=C1\Cc2c(C)c3c(c(C)c2C1=O)CCC3 | > 100 | > 100 | 95.6 | > 100 |  | > 100 | > 100 | > 100 | > 100 | > 100 | > 100 | > 100 | > 100 | > 100 | > 100 | > 100 | > 100 | > 100
10 | COc1ccc(NC(=S)Nc2cc(C)ccn2)cc1 | > 100 |  | > 100 | > 100 | > 100 | > 100 | > 100 | > 100 | > 100 | > 100 |  | > 100 | > 100 |  | > 100 | > 100 | > 100 | > 100
11 | CCCCCCCC(CC(=O)NC(CO)C(=O)NC(CO)CC(C)C)OC(=O)CC(CCCCCCC)OC(=O)CC(CCCCCCC)OC1OC(C)C(O)C(OC2OC(C)C(O)C(OC(C)=O)C2O)C1O (stereo not given) | 26.4 | 25 | 20.3 | 20.4 | 23.4 | 23 | 26.1 |  | 20.6 | 20.9 | 30.2 | 24.5 | 24.6 | 19.9 | 13.2 | 26.8 | 18.5 | 31.4
